Test results from the supplement of paper PMC4862054.

tested on: BT-474; experiment: normalised response (% of control), CellTiter-Glo; higher = more viable cells (100 = DMSO, 0 = benzethonium chloride kill control); settings: incubation time: 72 h
In short: (§1)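 After 72 h with compound in 384-well plates, breast cancer cell lines seeded as 20 µl suspension were read for CellTox Green fluorescence at 485/520 nm. CellTiter-Glo luminescence was then read after 10 min at room temperature. Compound was present at 5 concentrations in 10-fold steps over a 10,000-fold range set per compound, and plates were normalised to 0.1 % DMSO (100) and a positive kill control (0). Values are normalised signals, each at a single concentration.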

In order of falling normalised response:
1. Nc1nc(F)nc2c1ncn2[C@@H]1O[C@H](CO)[C@@H](O)[C@@H]1O [Fludarabine] (10 nM)  108%
2. CCc1cncnc1N1CCN(Cc2nc3ccc(C(F)(F)F)cc3[nH]2)CC1 (10 nM)  108%
3. Nc1ncn([C@H]2C[C@H](O)[C@@H](CO)O2)c(=O)n1 [Decitabine] (10 nM)  104%
4. Oc1ncc(N(CCCl)CCCl)c(O)n1 [Uracil mustard] (10 nM)  103%
5. N#Cc1ccc(C(c2ccc(C#N)cc2)n2cncn2)cc1 [Letrozole] (10 nM)  103%
6. Cc1cnc(NC(=O)Nc2cc(Br)c(C)cc2OC[C@@H]2CNCCO2)cn1 [Rabusertib] (1 nM)  103%
7. O=C(O)C1(C(=O)O)CCC1.[NH2-].[NH2-].[Pt+2] [Carboplatin] (10 nM)  103%
8. Nc1ccccc1NC(=O)c1ccc(CNC(=O)OCc2cccnc2)cc1 [Entinostat] (10 nM)  100%
9. CCCCC(=O)OCC(=O)[C@]1(O)Cc2c(O)c3c(c(O)c2[C@@H](O[C@H]2C[C@H](NC(=O)C(F)(F)F)[C@H](O)[C@H](C)O2)C1)C(=O)c1c(OC)cccc1C3=O [Valrubicin] (5 nM)  97.6%
10. COc1cc([C@@H]2c3cc4c(cc3[C@@H](O[C@@H]3O[C@@H]5CO[C@@H](c6cccs6)O[C@H]5[C@H](O)[C@H]3O)[C@H]3COC(=O)[C@H]23)OCO4)cc(OC)c1O [Teniposide] (10 nM)  96.8%
11. Cc1ccc(-c2cc(C(F)(F)F)nn2-c2ccc(S(N)(=O)=O)cc2)cc1 [Celecoxib] (10 nM)  27.3%

tested on: BT-549; experiment: as above; settings: incubation time: 72 h
In short: as §1

In order of falling normalised response:
1. Cc1ccc(-c2cc(C(F)(F)F)nn2-c2ccc(S(N)(=O)=O)cc2)cc1 [Celecoxib] (10 nM)  102%
2. O=C(O)C1(C(=O)O)CCC1.[NH2-].[NH2-].[Pt+2] [Carboplatin] (10 nM)  102%
3. Nc1nc(F)nc2c1ncn2[C@@H]1O[C@H](CO)[C@@H](O)[C@@H]1O [Fludarabine] (10 nM)  101%
4. Oc1ncc(N(CCCl)CCCl)c(O)n1 [Uracil mustard] (10 nM)  97.2%
5. Nc1ccccc1NC(=O)c1ccc(CNC(=O)OCc2cccnc2)cc1 [Entinostat] (10 nM)  96.8%
6. N#Cc1ccc(C(c2ccc(C#N)cc2)n2cncn2)cc1 [Letrozole] (10 nM)  95.3%
7. Cc1cnc(NC(=O)Nc2cc(Br)c(C)cc2OC[C@@H]2CNCCO2)cn1 [Rabusertib] (1 nM)  94.6%
8. CCc1cncnc1N1CCN(Cc2nc3ccc(C(F)(F)F)cc3[nH]2)CC1 (10 nM)  93.2%
9. Nc1ncn([C@H]2C[C@H](O)[C@@H](CO)O2)c(=O)n1 [Decitabine] (10 nM)  93%
10. COc1cc([C@@H]2c3cc4c(cc3[C@@H](O[C@@H]3O[C@@H]5CO[C@@H](c6cccs6)O[C@H]5[C@H](O)[C@H]3O)[C@H]3COC(=O)[C@H]23)OCO4)cc(OC)c1O [Teniposide] (10 nM)  91.9%
11. CCCCC(=O)OCC(=O)[C@]1(O)Cc2c(O)c3c(c(O)c2[C@@H](O[C@H]2C[C@H](NC(=O)C(F)(F)F)[C@H](O)[C@H](C)O2)C1)C(=O)c1c(OC)cccc1C3=O [Valrubicin] (5 nM)  91.1%

tested on: CAL-120; experiment: as above; settings: incubation time: 72 h
In short: as §1

In order of rising normalised response:
1. Nc1ccccc1NC(=O)c1ccc(CNC(=O)OCc2cccnc2)cc1 [Entinostat] (10 nM)  94.2%
2. CCCCC(=O)OCC(=O)[C@]1(O)Cc2c(O)c3c(c(O)c2[C@@H](O[C@H]2C[C@H](NC(=O)C(F)(F)F)[C@H](O)[C@H](C)O2)C1)C(=O)c1c(OC)cccc1C3=O [Valrubicin] (5 nM)  94.6%
3. N#Cc1ccc(C(c2ccc(C#N)cc2)n2cncn2)cc1 [Letrozole] (10 nM)  95.7%
4. Cc1cnc(NC(=O)Nc2cc(Br)c(C)cc2OC[C@@H]2CNCCO2)cn1 [Rabusertib] (1 nM)  98.1%
5. O=C(O)C1(C(=O)O)CCC1.[NH2-].[NH2-].[Pt+2] [Carboplatin] (10 nM)  99.3%
6. Nc1nc(F)nc2c1ncn2[C@@H]1O[C@H](CO)[C@@H](O)[C@@H]1O [Fludarabine] (10 nM)  101%
7. CCc1cncnc1N1CCN(Cc2nc3ccc(C(F)(F)F)cc3[nH]2)CC1 (10 nM)  101%
8. Cc1ccc(-c2cc(C(F)(F)F)nn2-c2ccc(S(N)(=O)=O)cc2)cc1 [Celecoxib] (10 nM)  101%
9. Oc1ncc(N(CCCl)CCCl)c(O)n1 [Uracil mustard] (10 nM)  102%
10. Nc1ncn([C@H]2C[C@H](O)[C@@H](CO)O2)c(=O)n1 [Decitabine] (10 nM)  103%
11. COc1cc([C@@H]2c3cc4c(cc3[C@@H](O[C@@H]3O[C@@H]5CO[C@@H](c6cccs6)O[C@H]5[C@H](O)[C@H]3O)[C@H]3COC(=O)[C@H]23)OCO4)cc(OC)c1O [Teniposide] (10 nM)  105%

tested on: CAL-148; experiment: as above; settings: incubation time: 72 h
In short: as §1

In order of falling normalised response:
1. Cc1cnc(NC(=O)Nc2cc(Br)c(C)cc2OC[C@@H]2CNCCO2)cn1 [Rabusertib] (1 nM)  118%
2. CCc1cncnc1N1CCN(Cc2nc3ccc(C(F)(F)F)cc3[nH]2)CC1 (10 nM)  115%
3. Nc1nc(F)nc2c1ncn2[C@@H]1O[C@H](CO)[C@@H](O)[C@@H]1O [Fludarabine] (10 nM)  108%
4. Oc1ncc(N(CCCl)CCCl)c(O)n1 [Uracil mustard] (10 nM)  107%
5. CCCCC(=O)OCC(=O)[C@]1(O)Cc2c(O)c3c(c(O)c2[C@@H](O[C@H]2C[C@H](NC(=O)C(F)(F)F)[C@H](O)[C@H](C)O2)C1)C(=O)c1c(OC)cccc1C3=O [Valrubicin] (5 nM)  105%
6. O=C(O)C1(C(=O)O)CCC1.[NH2-].[NH2-].[Pt+2] [Carboplatin] (10 nM)  105%
7. Nc1ccccc1NC(=O)c1ccc(CNC(=O)OCc2cccnc2)cc1 [Entinostat] (10 nM)  104%
8. Cc1ccc(-c2cc(C(F)(F)F)nn2-c2ccc(S(N)(=O)=O)cc2)cc1 [Celecoxib] (10 nM)  102%
9. N#Cc1ccc(C(c2ccc(C#N)cc2)n2cncn2)cc1 [Letrozole] (10 nM)  99.3%
10. Nc1ncn([C@H]2C[C@H](O)[C@@H](CO)O2)c(=O)n1 [Decitabine] (10 nM)  95.4%
11. COc1cc([C@@H]2c3cc4c(cc3[C@@H](O[C@@H]3O[C@@H]5CO[C@@H](c6cccs6)O[C@H]5[C@H](O)[C@H]3O)[C@H]3COC(=O)[C@H]23)OCO4)cc(OC)c1O [Teniposide] (10 nM)  93.2%

tested on: CAL-51; experiment: as above; settings: incubation time: 72 h
In short: as §1

In order of rising normalised response:
1. CCCCC(=O)OCC(=O)[C@]1(O)Cc2c(O)c3c(c(O)c2[C@@H](O[C@H]2C[C@H](NC(=O)C(F)(F)F)[C@H](O)[C@H](C)O2)C1)C(=O)c1c(OC)cccc1C3=O [Valrubicin] (5 nM)  60.1%
2. Oc1ncc(N(CCCl)CCCl)c(O)n1 [Uracil mustard] (10 nM)  80.1%
3. COc1cc([C@@H]2c3cc4c(cc3[C@@H](O[C@@H]3O[C@@H]5CO[C@@H](c6cccs6)O[C@H]5[C@H](O)[C@H]3O)[C@H]3COC(=O)[C@H]23)OCO4)cc(OC)c1O [Teniposide] (10 nM)  112%
4. Nc1nc(F)nc2c1ncn2[C@@H]1O[C@H](CO)[C@@H](O)[C@@H]1O [Fludarabine] (10 nM)  120%
5. N#Cc1ccc(C(c2ccc(C#N)cc2)n2cncn2)cc1 [Letrozole] (10 nM)  126%
